Results reported in patent US9333211B2, “Phosphaplatin mediated modulation of pigment epithelial derived factor and uses thereof” (UNIVERSITY OF HOUSTON SYSTEM, priority 2013, dated 2016).
“Also recorded” adds a separate entry of the source.

Key:
[1] = test system: PEDF gene; experiment: PEDF gene expression, Human angiogenesis PCR array (real-time PCR); type: cell-based; settings: A2780 cells, 24 hr, ΔΔCT vs β-actin
Protocol: Human ovarian cancer cell lines, A2780 (Fox Chase) were cultured in 100 mm^3 plates in monolayer by using RPMI medium 1640 supplemented with 10% FBS, 2 mM glutamine, 0.25 units/mL insulin and penicillin/streptomycin (100 units/ml) in a 37° C. incubator continuously gassed with 5% CO2. The cells were treated with either RRD2 and RRD4, 5 μM and 13 μM, respectively, for 24 hrs in triplicate. The cells were collected by 0.025% trypsin-edta and were centrifuged. The pellet of cells was then resuspended in PBS and washed three times with PBS and pelleted. The total RNA isolated using the Qiagen RNeasy Mini kit (Qiagen Inc.) according to the handbook protocol. The quantity of RNA was measured spectrophotometrically at Absorbance 260 nm (1Abs260=40 ug/ml) and the quality of RNA A260:A280 ratio was measured between 1.8 to 2.0. For each experiment, 0.9 μg of total RNA was converted to cDNA using the RT^2 first strand kit (SABiosciences, Qiagen Inc.) and analyzed on the SABiosciences (Qiagen Inc.) PAHS-024C Human angiogenesis array with an Applied Biosciences 7900HT real-time PCR machine according to manufactures protocol. The threshold cycle (Ct) and baseline for each well was determined by instruments software and the resulting Ct values were analyzed using SABiosciences PCR Array Data Analysis Web-based Software (http://sabiosciences.com/pcrarraydataanalysis.php). β-Actin and/or GADPH were used as housekeeping gene for determining fold regulation.

[2] = test system: PEDF protein; experiment: PEDF protein expression by immunofluorescence in A2780 cells; type: cell-based, human; settings: for PEDF protein expression by immunofluorescence: 12 hour treatment; for PEDF overexpression, time dependence: 3 to 24 hr, 20 and 25 μM
Protocol: A 6-well plate containing pretreated cover slips was seeded with 500-1000 cells of A2780 human ovarian cancer cell lines in 2.5 ml of RPMI 1640 media (Lonza Walkersville, Frederick, Md.) containing 2.0 mM L-glutamine and supplemented with 10% heat inactivated fetal bovine serum, FBS (Hyclone, Logan, Utah), and 0.25 units/mL recombinant human insulin (Sigma Aldrich, St. Louis, Mo.), 100 U/ml penicillin-streptomycin (Lonza Walkersville, Frederick, Md.). Those cells reaching to 80% confluency were treated with phosphaplatin compounds, RRD2 and RRD4 at various time intervals (3, 6, 12, or 24 hours). Each of the cover slip was washed with PBS three times, and the cells were fixed with freshly prepared 4% paraformaldehyde at room temperature for 20 minutes. The fixed cells were then washed with PBS for three times. These cells were permeablized and blocked with 7.5% bovine serum albumin, BSA/PBS/0.01% triton-X100 at 37° C. for 60 minutes followed by washing the cells with PBS twice. The cover slips were treated with a 1:300 dilution of Pigment epithelium-derived factor (PEDF; also known as serpin F1, SERPINF1) mouse primary antibody (Cell Signalling Technology Inc., Danvers, Mass.) in 7.5% BSA/PBS/0.01% triton for 12-15 hours 37° C. and washed with PBS for three times. The coverslips were incubated with secondary Alexa Fluor 488-conjugated anti-mouse IgG (FITC-Green) (Invitrogen, Carlsbad, Calif.) at a 1:5000 dilution in 7.5% BSA/PBS/0.01% triton-X100 for 1 hour at 37° C. in the dark. The cover-slips were then washed with PBS for another three times. In addition, some treatments were stained for beta-Actin and was stained with Phalloidin (Rhodamine) (Red) (Invitrogen, Carlsbad, Calif.) (7 ul/ml) in 7.5% BSA/PBS/0.01% triton-X100 for 1 hour at 37° C. in the dark. The moist cover-slips were then mounted onto a microscope slide with Ultracruz mounting media containing DAPI (4′,6-diamidino-2-phenylindole) (Blue) (Santa Cruz Biotechnology, Santa Cruz, Calif.) (for identifying the nucleus) and images were then collected on an Olympus FV-1000 inverted stage confocal microscope using a Plan Apo N 60×1.42NA oil immersion objective and processed by FluoView software.

[3] = test system: PEDF protein; experiment: PEDF protein expression by Western blot in A2780 cells; type: cell-based, human; settings: 3 hrs, 6 hrs and 12 hrs treatment
Protocol: Treated human ovarian cancer cells (approximately 1×10^6 cells in 60 mm^3 plates at 80-90% confluence) line with 20 μM RRD2 and 25 μM RRD4 for 3, 6 and 12 hrs was washed with PBS for three times. Total protein was extracted by treating the washed cells directly with 200 μl of RIPA (Sigma, St. Louis, Mo.) or MPER (Pierce, USA). Protein extract samples (50 μg) were separated by 12% SDS-PAGE and blotted onto polyvinylidene difluoride (PVDF) membranes. The blots were washed with TBST [10 mM Tris-HCl (pH 7.6), 150 mM NaCl, 0.1% Tween-20], blocked with 5% skim milk and 1% BSA overnight at 4 C, and incubated with the mouse anit-PEDF (Santa Cruz Biotechnology, USA) primary antibody at 1:500 dilutions in TBST with 5% skim milk and 1% BSA overnight at 4° C. The membrane was then washed TBST, and the primary antibodies were detected with secondary antibody goat anti-mouse IgG conjugated to horseradish peroxidase at 1:2500 dilution for 1.5 hours at room temperature. The blots were developed with enhanced chemiluminescence (ECL) (Pierce, USA) and exposed to X-ray film.

[4] = test system: ARPE19 cells; experiment: CellTiter-Glo Luminescent Cell Viability Assay; type: cell-based, human; settings: 100 μM, 24 hours of treatment
Protocol: Promega's CellTiter-Glo® Luminescent Cell Viability Assay was used to determine the number of viable cells in a culture by quantification of ATP (Promega. Madison, Wis.). Briefly, ARPE19 cells, a normal human retinal pigment epithelial cell line, were seeded in a 96 well plate with 10,000-30,000 cells per well and were allowed to attach for 24 hours. Thereafter, the cells were treated with RRD2 or RRD4 at different concentrations ranging from 1 to 100 μM for 24 hours. The detection reagent was prepared per manufactures protocol and equal volume of CellTiter-Glo® reagent was added to each well of cell culture and luminescence read with integration time set for 0.25 to 1 second. The Glo titer Viability Assay has a linear range is from 0 to 50,000 cells per well. Each concentration was done in triplicate.

[5] = test system: HUVEC tube formation; experiment: HUVEC tubulogenesis assay on Matrigel; type: cell-based, human; settings: for neovascularization (tube formation) in HUVEC: after 30 min of treatment; for tube formation after treatment: HUVEC on Matrigel, 30 min treatment period
Protocol: Endothelial cell tubulogenesis assay was performed seeding 20,000 cells of HUVECs in 96-well plate that was pre-coated with 0.1% gelatin and 40 ul of Matrigel and treated with increasing concentration of phosphaplatin compounds, RRD2 and RRD4 in medium 199 (Lonza Walkersville, Frederick, Md.) supplemented with 20% heat-inactivated FBS (Hyclone, Logan, Utah), 100 μg/ml heparin (Sigma Aldrich, St. Louis, Mo.), 100 U/ml penicillin-streptomycin (Lonza Walkersville, Frederick, Md.) and endothelial mitogen (Biomedical Technologies, Stoughton, Mass.). In brief, Matrigel was defrosted overnight at 4° C. and the 0.1% gelatin coated 96 well plate was chilled and 40 μl of Matrigel was coated into each well. The plate was then incubated at 37° C. and 5% CO2 for 1 hour. The 96-well plate was seeded with 2×10^4 cells of HUVECs. After a 24 hour period of cell attachment each well was treated with the increasing concentration of Pt compounds overnight (8-10 hours) at 37° C. and 5% CO2. The capillary/tube formation structures formed were then recorded by an inverted microscope and quantified. Cells were counted in total visual area of 1.575 mm.
To further investigate the anti-angiogenetic behavior of RRD2 and RRD4 on endothelial cell tube formation, we treated HUVECs with different concentration of RRD2 and RRD4 (compounds A and D in FIG. 2) onto Matrigel. After 30 min of incubation with tube-like structures were monitored with an inverted microscope at 40× magnification.

[6] = test system: PEDF gene; experiment: Individual PEDF gene expression, two step qRT-PCR; type: cell-based, human; settings: A2780 cells, Single gene expression, endogenous control GADPH
Protocol: Individual Gene expression for PEDF was assessed by two step qRT-PCR assay. First, RNA isolation and purification was done as described above. A total of 2 μg total RNA was used to reverse-transcribe the template into single-stranded cDNA using RT^2 first strand kit (SABiosciences, Qiagen Inc.). In the second step, the synthesized cDNA was subjected to qRT-PCR RT^2 Primer Set (PEDF) used with SYBR Green real-time PCR master mix detection and endogenous control β-actin and/or GADPH (Applied Biosystems, Foster City, Calif.). All PCR reactions involving cDNA samples from treated and untreated cells were run in triplicate. Quantitative real-time PCR reactions were carried out on the StepOne PCR machine, 48 well system (Applied Biosystems, Foster City, Calif.) according to manufactures protocol. Results were generated using the StepOne software v2.1. The 2^−ΔΔCt method was used to present the relative differences in the mRNA expression levels.

SMILES	Fold change expression of PEDF ([1]; 5 uM) [fold]	Fold change expression of PEDF ([1]; 20 uM) [fold]	PEDF protein expression by immunofluorescence ([2]; A2780, 20 μM)	PEDF overexpression, time dependence ([2]; human ovarian cells)	treatment time of maximum PEDF protein expression ([2]; immune-fluorescence experiments, human ovarian cells) [h]	PEDF protein expression by Western Blotting ([3]; A2780, 20 μM)	effect on viability of ARPE19 retinal cells [4]	inhibition of HUVEC tube formation on Matrigel ([5]; 0.5 μM, 30 min incubation)	neovascularization (tube formation) in HUVEC ([5]; 1 μM)	tube formation after treatment [5]	Fold change expression of PEDF ([1]; 13 uM) [fold]	PEDF protein expression by immunofluorescence ([2]; A2780, 25 μM)	PEDF protein expression by Western Blotting ([3]; A2780, 25 μM)	Fold change expression of PEDF ([6]; 25 uM, 3 hr) [fold]	Fold change expression of PEDF ([6]; 50 uM, 24 hr) [fold]	neovascularization (tube formation) in HUVEC ([5]; 10 μM)
NC1CCCCC1N.O=P1(O)[O][Pt][O]P(=O)(O)O1 [RRD2, R,R-trans-1,2-cyclohexane-diamine (dihydrogen pyrophospahto)platinum(II)]	2.64	5.79	overexpression; also recorded: overexpressed or upregulated	time dependent overexpression	12	overexpression; also recorded: upregulated	no effect	more than 85%	inhibition	No tube formation was evident	–	–	–	–	–	–
NC1CCCCC1N.O=P1(O)OP(=O)(O)[O][Pt]([OH])([OH])[O]1 [RRD4, R,R-trans-1,2-cyclohexane-diamine-trans-dihydroxo(dihydrogenpyrophospahto) platinum(IV)]	–	–	–	time dependent overexpression	–	–	no effect	–	–	No tube formation was evident	2.05	overexpression; also recorded: overexpressed or upregulated	overexpression; also recorded: upregulated	2.1	4.1	inhibition
